# Molecular target: plasmepsin II (Plasmodium falciparum, UniProt P46925)
# Experiment: biochemical
# Conditions: Additional Examples table; FRET, pH 5, 37° C., 40 min, substrate 1 μM; read-out: IC50 (nM) on plasmepsin II
# plasmepsin II, sequence (P46925 125-453): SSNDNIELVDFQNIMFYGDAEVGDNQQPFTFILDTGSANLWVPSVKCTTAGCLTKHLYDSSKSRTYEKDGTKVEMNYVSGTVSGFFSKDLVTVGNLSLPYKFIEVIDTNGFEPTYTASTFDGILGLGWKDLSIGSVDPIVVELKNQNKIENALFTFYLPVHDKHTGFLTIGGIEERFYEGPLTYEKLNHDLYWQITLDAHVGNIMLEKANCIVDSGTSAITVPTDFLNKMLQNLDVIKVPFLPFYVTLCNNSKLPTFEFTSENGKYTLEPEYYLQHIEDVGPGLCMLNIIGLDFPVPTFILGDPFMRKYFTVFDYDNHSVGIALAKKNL
row,SMILES,IC50 [nM]
1,"CCCCCc1ccc(C(=O)N(Cc2ccc(-c3cccnc3)cc2)C2CCN(CC3=CCCCC3)CC2)cc1 [Example 61, N-(1-Cyclohex-1-enylmethyl-piperidin-4-yl)-4-pentyl-N-(4-pyridin-3-yl-benzyl)benzamide]",89
2,"CCCCCc1ccc(C(=O)N(Cc2ccc(-c3ccc4c(c3)OCO4)cc2)C2CCN(Cc3ccc(O)cc3)CC2)cc1 [Example 62, N-(4-Benzo[1,3]dioxol-5-yl-benzyl)-N-[1-(4-hydroxybenzyl)piperidin-4-yl]-4-pentylbenzamide]",90
3,"CCCCCc1ccc(C(=O)N(Cc2ccc(-c3ccccc3F)cc2)C2CCN(Cc3ccncc3)CC2)cc1 [Example 63, N-(2′-Fluorobiphenyl-4-ylmethyl)-4-pentyl-N-(1-pyridin-4-ylmethyl-piperidin-4-yl)benzamide]",95
4,"CCCCCc1ccc(C(=O)N(Cc2ccc(-c3cccnc3)cc2)C2CCN(Cc3ccncc3)CC2)cc1 [Example 64, 4-Pentyl-N-(4-pyridin-3-yl-benzyl)-N-(1-pyridin-4-ylmethylpiperidin-4-yl)benzamide]",102
5,"CCCCCc1ccc(C(=O)N(Cc2ccc(-c3ccccc3)cc2)C2CCN(Cc3cccnc3)CC2)cc1 [Example 65, N-Biphenyl-4-ylmethyl-4-pentyl-N-(1-pyridin-3-ylmethylpiperidin-4-yl)benzamide]",103
6,"CCCCCc1ccc(C(=O)N(Cc2ccc(-c3ccncc3)cc2)C2CCN(Cc3ccccc3)CC2)cc1 [Example 66, N-(1-Benzylpiperidin-4-yl)-4-pentyl-N-(4-pyridin-4-ylbenzyl)benzamide]",104
7,"CCCCCc1ccc(C(=O)N(Cc2ccc(-c3ccccc3Cl)cc2)C2CCN(Cc3ccccc3)CC2)cc1 [Example 68, N-(1-Benzylpiperidin-4-yl)-N-(2′-chlorobiphenyl-4-ylmethyl)-4-pentylbenzamide]",120
8,"CCCCCc1ccc(C(=O)N(Cc2ccc(-c3ccccc3F)cc2)C2CCN(CC3=CCCCC3)CC2)cc1 [Example 69, N-(1-Cyclohex-1-enylmethylpiperidin-4-yl)-N-(2′-fluorobiphenyl-4-ylmethyl)-4-pentylbenzamide]",123
9,"CCCCCc1ccc(C(=O)N(Cc2ccc(-c3ccccn3)cc2)C2CCN(CC3=CCCCC3)CC2)cc1 [Example 70, N-(1-Cyclohex-1-enylmethylpiperidin-4-yl)-4-pentyl-N-(4-pyridin-2-ylbenzyl)benzamide]",125
10,"CCCCCc1ccc(C(=O)N(Cc2ccc(-c3ccccc3)cc2)C2CCN(Cc3ccoc3)CC2)cc1 [Example 71, N-Biphenyl-4-ylmethyl-N-(1-furan-3-ylmethyl-piperidin-4-yl)-4-pentylbenzamide]",127
11,"CCCCCc1ccc(C(=O)N(Cc2ccc(-c3cccnc3)cc2)C2CCN(Cc3ccc(CO)o3)CC2)cc1 [Example 72, N-[1-(5-Hydroxymethyl-furan-2-ylmethyl)piperidin-4-yl]-4-pentyl-N-(4-pyridin-3-ylbenzyl)benzamide]",128
12,"CCCCCc1ccc(C(=O)N(Cc2ccc(-c3cccnc3)cc2)C2CCN(CC3CC3)CC2)cc1 [Example 73, N-(1-Cyclopropylmethylpiperidin-4-yl)-4-pentyl-N-(4-pyridin-3-yl-benzyl)benzamide]",128
13,"CCCCCc1ccc(C(=O)N(Cc2ccc(-c3cccc(C)c3)cc2)C2CCN(Cc3ccccc3)CC2)cc1 [Example 74, N-(1-Benzylpiperidin-4-yl)-N-(3′-methylbiphenyl-4-ylmethyl)-4-pentylbenzamide]",140
14,"CCCCCc1ccc(C(=O)N(Cc2ccc(OCc3ccccc3)cc2)[C@H]2CCN(Cc3ccccc3)C2)cc1 [Example 75, N-(4-Benzyloxybenzyl)-N-((3S)-1-benzylpyrrolidin-3-yl)-4-pentylbenzamide]",141
15,"CCCCCc1ccc(C(=O)N(Cc2ccc(-c3ccccc3F)cc2)C2CCN(Cc3ccc(O)cc3)CC2)cc1 [Example 76, N-(2′-Fluorobiphenyl-4-ylmethyl)-N-[1-(4-hydroxybenzyl)piperidin-4-yl]-4-pentylbenzamide]",152
16,"CCCCCc1ccc(C(=O)N(Cc2ccc(C(F)(F)F)c(F)c2)C2CCN(Cc3ccccc3)CC2)cc1 [Example 77, N-(1-Benzylpiperidin-4-yl)-N-(3-fluoro-4-trifluoromethylbenzyl)-4-pentylbenzamide]",153
17,"CCCCCc1ccc(C(=O)N(Cc2ccc(-c3ccccn3)cc2)C2CCN(Cc3ccoc3)CC2)cc1 [Example 78, N-(1-Furan-3-ylmethylpiperidin-4-yl)-4-pentyl-N-(4-pyridin-2-yl-benzyl)benzamide]",168
18,"CCCCCc1ccc(C(=O)N(Cc2ccc(-c3ccccn3)cc2)C2CCN(Cc3ccncc3)CC2)cc1 [Example 79, 4-Pentyl-N-(4-pyridin-2-yl-benzyl)-N-(1-pyridin-4-ylmethylpiperidin-4-yl)benzamide]",176
19,"CCCCCc1ccc(C(=O)N(Cc2ccc(OC(F)(F)F)cc2)C2CCN(Cc3ccccc3)CC2)cc1 [Example 80, N-(1-Benzylpiperidin-4-yl)-4-pentyl-N-(4-trifluoromethoxybenzyl)benzamide]",187
20,"CCCCCc1ccc(C(=O)N(Cc2ccc(-c3ccccc3)cc2)C2CCN(Cc3ccc(O)cc3)CC2)cc1 [Example 81, N-Biphenyl-4-ylmethyl-N-[1-(4-hydroxybenzyl)piperidin-4-yl]-4-pentylbenzamide]",192

row,SMILES,IC50 [nM]
1,"CCCCCc1ccc(C(=O)N(Cc2ccc(-c3ccccc3)cc2)C2CCN(CC3=CCCCC3)CC2)cc1 [Example 82, N-Biphenyl-4-ylmethyl-N-(1-cyclohex-1-enylmethylpiperidin-4-yl)-4-pentylbenzamide]",196
2,"CCCCCc1ccc(C(=O)N(Cc2ccc(OC(C)C)cc2)C2CCN(Cc3ccccc3)CC2)cc1 [Example 83, N-(1-Benzylpiperidin-4-yl)-N-(4-isopropoxybenzyl)-4-pentylbenzamide]",204
3,"CCCCCc1ccc(C(=O)N(Cc2ccc(-c3ccccn3)cc2)C2CCN(Cc3ccccc3)CC2)cc1 [Example 84, N-(1-Benzylpiperidin-4-yl)-4-pentyl-N-(4-pyridin-2-yl-benzyl)benzamide]",209
4,"CCCCCc1ccc(C(=O)N(Cc2ccc(-c3cccnc3)cc2)C2CCN(Cc3cc4ccccc4o3)CC2)cc1 [Example 85, N-(1-Benzofuran-2-ylmethyl-piperidin-4-yl)-4-pentyl-N-(4-pyridin-3-yl-benzyl)benzamide]",211
5,"CCCCCc1ccc(C(=O)N(Cc2ccc3ccccc3c2)C2CCN(Cc3ccccc3)CC2)cc1 [Example 86, N-(1-Benzylpiperidin-4-yl)-N-naphthalen-2-ylmethyl-4-pentylbenzamide]",248
6,"CCCCCc1ccc(C(=O)N(Cc2ccc(-c3cncnc3)cc2)C2CCN(Cc3ccccc3)CC2)cc1 [Example 87, N-(1-Benzylpiperidin-4-yl)-4-pentyl-N-(4-pyrimidin-5-ylbenzyl)benzamide]",250
7,"CCCCCc1ccc(CN(Cc2ccc(-c3ccc(OC)c(OC)c3)cc2)C2CCN(Cc3ccccc3)CC2)cc1 [Example 88, (1-Benzylpiperidin-4-yl)-(3′,4′-dimethoxybiphenyl-4-ylmethyl)-(4-pentyl-benzyl)amine]",255
8,"CCCCCc1ccc(C(=O)N(Cc2ccc(-c3ccc(F)cc3)cc2)C2CCN(Cc3ccccc3)CC2)cc1 [Example 89, N-(1-Benzylpiperidin-4-yl)-N-(4′-fluorobiphenyl-4-ylmethyl)-4-pentylbenzamide]",260
9,"C=CCOc1ccc(CN(C(=O)c2ccc(CCCCC)cc2)C2CCN(Cc3ccccc3)CC2)cc1 [Example 90, N-(4-Allyloxybenzyl)-N-(1-benzylpiperidin-4-yl)-4-pentylbenzamide]",270
10,"CCCCCc1ccc(CN(Cc2ccc(-c3ccc4c(c3)OCO4)cc2)C2CCN(Cc3ccccc3)CC2)cc1 [Example 91, (4-Benzo[1,3]dioxol-5-yl-benzyl)-(1-benzylpiperidin-4-yl)-(4-pentyl-benzyl)amine]",275
11,"CCCCCc1ccc(C(=O)N(Cc2ccc(OCc3ccccc3)cc2O)C2CCN(Cc3ccccc3)CC2)cc1 [Example 92, N-(4-Benzyloxy-2-hydroxy-benzyl)-N-(1-benzylpiperidin-4-yl)-4-pentylbenzamide]",281
12,"CCCCCc1ccc(C(=O)N(Cc2ccc3c(c2)OCO3)C2CCN(Cc3ccccc3)CC2)cc1 [Example 93, N-Benzo[1,3]dioxol-5-ylmethyl-N-(1-benzylpiperidin-4-yl)-4-pentyl-benzamide]",284
13,"CCCCCc1ccc(C(=O)N(Cc2ccc(OCC)cc2)C2CCN(Cc3ccccc3)CC2)cc1 [Example 94, N-(1-Benzylpiperidin-4-yl)-N-(4-ethoxybenzyl)-4-pentylbenzamide]",284
14,"CCCCCc1ccc(CN(Cc2ccc(-c3ccc(C#N)cc3)cc2)C2CCN(Cc3ccccc3)CC2)cc1 [Example 95, 4′-{[(1-Benzylpiperidin-4-yl)-(4-pentylbenzyl)amino]methyl}-biphenyl-4-carbonitrile]",294
15,"CCCCCc1ccc(C(=O)N(Cc2ccc(-c3ccccc3)cc2)C2CCN(Cc3cccc(C(F)(F)F)c3)CC2)cc1 [Example 96, N-Biphenyl-4-ylmethyl-4-pentyl-N-[1-(3-trifluoromethylbenzyl)piperidin-4-yl]benzamide]",319
16,"CCCCCCc1ccc(C(=O)N(Cc2ccc(-c3ccccc3)cc2)C2CCN(Cc3ccccc3)CC2)cc1 [Example 97, N-(1-Benzylpiperidin-4-yl)-N-biphenyl-4-ylmethyl-4-hexyl-benzamide]",322
17,"CCCCCc1ccc(C(=O)N(Cc2ccc(OC)cc2)C2CCN(Cc3ccccc3)CC2)cc1 [Example 98, N-(1-Benzylpiperidin-4-yl)-N-(4-methoxybenzyl)-4-pentyl-benzamide]",322
18,"CCCCCc1ccc(C(=O)N(Cc2ccc(-c3ccccc3)cc2)C2CCN(Cc3ccccc3O)CC2)cc1 [Example 99, N-Biphenyl-4-ylmethyl-N-[1-(2-hydroxybenzyl)piperidin-4-yl]-4-pentylbenzamide]",361
19,"CCCCC[C@H]1CC[C@H](C(=O)N(Cc2ccc(-c3ccccc3)cc2)C2CCN(Cc3ccccc3)CC2)CC1 [Example 100, trans-4-Pentylcyclohexane carboxylic acid(1-benzylpiperidin-4-yl)-biphenyl-4-ylmethyl amide]",374

# Source: patent publication US20040102431A1, “Substituted amino-aza-cycloalkanes useful against malaria” (priority 2000, published 2004)
